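Interpolation was linear, between the two tested concentrations surrounding the appropriate level; five concentrations were tested over 48 hours in 96-well plates. Definition used: TGI = concentration required for complete inhibition of growth.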
Columns and labels:
Assay in all cases: DTP human tumour cell line panel, 48 h
[1] = test system: HOP-18 NSCLC
[2] = test system: CAKI-1 renal
[3] = test system: NCI-H460 lung
[4] = test system: K-562 leukemia
[5] = test system: SW-620 colon
[6] = test system: HOP-92 NSCLC
[7] = test system: LXFL 529 NSCLC
[8] = test system: MALME-3M melanoma
[9] = test system: HOP-62 NSCLC
[10] = test system: U251 CNS
[11] = test system: OVCAR-4 ovarian
[12] = test system: SK-OV-3 ovarian
[13] = test system: MOLT-4 leukemia
[14] = test system: ACHN renal
[15] = test system: SF-539 CNS
[16] = test system: HL-60(TB) leukemia
[17] = test system: SNB-19 CNS
[18] = test system: RPMI-8226 leukemia
[19] = test system: DMS 273 small cell lung
[20] = test system: M19-MEL melanoma
[21] = test system: SF-268 CNS
[22] = test system: NCI-H226 lung
[23] = test system: M14 melanoma
[24] = test system: NCI-H23 lung
[25] = test system: SK-MEL-5 melanoma
[26] = test system: 786-0 renal
[27] = test system: UO-31 renal
[28] = test system: A549 NSCLC
[29] = test system: LOX IMVI melanoma
[30] = test system: SK-MEL-2 melanoma
[31] = test system: OVCAR-8 ovarian
[32] = test system: NCI-H522 lung
[33] = test system: EKVX NSCLC
[34] = test system: HCC-2998 colon
[35] = test system: OVCAR-5 ovarian
[36] = test system: HCT-116 colon
[37] = test system: RXF 393 renal
[38] = test system: HCT-15 colon
[39] = test system: SK-MEL-28 melanoma
[40] = test system: KM20L2 colon
[41] = test system: COLO 205 colon
[42] = test system: XF 498 CNS
[43] = test system: KM12 colon
[44] = test system: SF-295 CNS
[45] = test system: A498 renal
[46] = test system: SNB-75 CNS
[47] = test system: TK-10 renal
[48] = test system: IGROV1 ovarian
[49] = test system: CCRF-CEM leukemia
[50] = test system: SNB-78 CNS
[51] = test system: DLD-1 colon
[52] = test system: SN12C renal
[53] = test system: UACC-62 melanoma
[54] = test system: SR leukemia
[55] = test system: UACC-257 melanoma
[56] = test system: HT29 colon
[57] = test system: OVCAR-3 ovarian
[58] = test system: RXF-631 renal
[59] = test system: DMS 114 small cell lung

## O=[N+]([O-])c1ccc(-n2nnc(C3=NCCCN3)c2-c2ccc(Cl)cc2)cc1
[1]
  TGI: > 100 µM
[2]
  TGI: > 100 µM
[3]
  TGI: > 100 µM
[4]
  TGI: > 100 µM
[5]
  TGI: > 100 µM
[6]
  TGI: > 100 µM
[7]
  TGI: > 100 µM
[8]
  TGI: > 100 µM
[9]
  TGI: > 100 µM
[10]
  TGI: > 100 µM
[11]
  TGI: > 100 µM
[12]
  TGI: > 100 µM
[13]
  TGI: > 100 µM
[14]
  TGI: > 100 µM
[15]
  TGI: > 100 µM
[16]
  TGI: > 100 µM
[17]
  TGI: > 100 µM
[18]
  TGI: > 100 µM
[19]
  TGI: > 100 µM
[20]
  TGI: > 100 µM
[21]
  TGI: > 100 µM
[22]
  TGI: > 100 µM
[23]
  TGI: > 100 µM
[24]
  TGI: > 100 µM
[25]
  TGI: > 100 µM
[26]
  TGI: > 100 µM
[27]
  TGI: > 100 µM
[28]
  TGI: > 100 µM
[29]
  TGI: > 100 µM
[30]
  TGI: > 100 µM
[31]
  TGI: > 100 µM
[32]
  TGI: > 100 µM
[33]
  TGI: > 100 µM
[34]
  TGI: > 100 µM
[35]
  TGI: > 100 µM
[36]
  TGI: > 100 µM
[37]
  TGI: > 100 µM
[38]
  TGI: > 100 µM
[39]
  TGI: > 100 µM
[40]
  TGI: > 100 µM
[41]
  TGI: > 100 µM
[42]
  TGI: > 100 µM
[43]
  TGI: > 100 µM
[44]
  TGI: > 100 µM
[45]
  TGI: > 100 µM
[46]
  TGI: > 100 µM
[47]
  TGI: > 100 µM
[48]
  TGI: > 100 µM
[49]
  TGI: > 100 µM
[50]
  TGI: > 100 µM
[51]
  TGI: > 100 µM
[52]
  TGI: > 100 µM
[53]
  TGI: > 100 µM
[54]
  TGI: > 100 µM
[55]
  TGI: > 100 µM
[56]
  TGI: > 100 µM
[57]
  TGI: > 100 µM

## O=C(Nc1ccc([N+](=O)[O-])cc1)C1C(=O)C(=O)N(c2ccc([N+](=O)[O-])cc2)C1=O (configuration not stated)
[1]
  TGI: > 100 µM
[2]
  TGI: > 100 µM
[3]
  TGI: > 100 µM
[4]
  TGI: > 100 µM
[5]
  TGI: 33.9 µM
[6]
  TGI: > 100 µM
[7]
  TGI: > 100 µM
[8]
  TGI: > 100 µM
[9]
  TGI: > 100 µM
[10]
  TGI: > 100 µM
[12]
  TGI: > 100 µM
[13]
  TGI: > 100 µM
[14]
  TGI: > 100 µM
[15]
  TGI: > 100 µM
[16]
  TGI: > 100 µM
[17]
  TGI: > 100 µM
[18]
  TGI: > 100 µM
[19]
  TGI: > 100 µM
[21]
  TGI: > 100 µM
[22]
  TGI: > 100 µM
[58]
  TGI: > 100 µM
[23]
  TGI: > 100 µM
[24]
  TGI: > 100 µM
[25]
  TGI: > 100 µM
[26]
  TGI: > 100 µM
[27]
  TGI: > 100 µM
[28]
  TGI: > 100 µM
[29]
  TGI: 30.3 µM
[30]
  TGI: > 100 µM
[31]
  TGI: > 100 µM
[59]
  TGI: 35.8 µM
[32]
  TGI: > 100 µM
[33]
  TGI: > 100 µM
[34]
  TGI: > 100 µM
[35]
  TGI: > 100 µM
[36]
  TGI: > 100 µM
[37]
  TGI: > 100 µM
[38]
  TGI: > 100 µM
[39]
  TGI: > 100 µM
[40]
  TGI: > 100 µM
[41]
  TGI: > 100 µM
[43]
  TGI: > 100 µM
[44]
  TGI: > 100 µM
[45]
  TGI: > 100 µM
[46]
  TGI: > 100 µM
[47]
  TGI: > 100 µM
[48]
  TGI: > 100 µM
[49]
  TGI: > 100 µM
[50]
  TGI: > 100 µM
[51]
  TGI: > 100 µM
[52]
  TGI: > 100 µM
[53]
  TGI: 19.5 µM
[54]
  TGI: > 100 µM
[55]
  TGI: > 100 µM
[56]
  TGI: > 100 µM
[57]
  TGI: > 100 µM

## C/C(=C1/CCCC2(N=NCC2c2ccccc2)C1=O)c1ccccc1 (configuration not stated)
[1]
  TGI: > 100 µM
[3]
  TGI: > 100 µM
[4]
  TGI: 41.4 µM
[5]
  TGI: > 100 µM
[6]
  TGI: > 100 µM
[7]
  TGI: 65.1 µM
[8]
  TGI: 59.7 µM
[10]
  TGI: 72 µM
[11]
  TGI: > 100 µM
[12]
  TGI: > 100 µM
[13]
  TGI: 48.1 µM
[14]
  TGI: > 100 µM
[15]
  TGI: > 100 µM
[16]
  TGI: 25.6 µM
[17]
  TGI: > 100 µM
[18]
  TGI: > 100 µM
[19]
  TGI: 33.3 µM
[20]
  TGI: 65 µM
[21]
  TGI: > 100 µM
[22]
  TGI: 41.3 µM
[23]
  TGI: 29 µM
[24]
  TGI: 67.5 µM
[25]
  TGI: 25.3 µM
[26]
  TGI: > 100 µM
[27]
  TGI: > 100 µM
[28]
  TGI: 92.6 µM
[29]
  TGI: > 100 µM
[30]
  TGI: 42.1 µM
[31]
  TGI: 64.2 µM
[59]
  TGI: 33.2 µM
[32]
  TGI: 59.6 µM
[33]
  TGI: > 100 µM
[34]
  TGI: > 100 µM
[35]
  TGI: > 100 µM
[36]
  TGI: 53.3 µM
[37]
  TGI: 79.5 µM
[38]
  TGI: > 100 µM
[39]
  TGI: 73.2 µM
[40]
  TGI: > 100 µM
[41]
  TGI: 31.1 µM
[42]
  TGI: 49.2 µM
[43]
  TGI: 31.3 µM
[44]
  TGI: > 100 µM
[46]
  TGI: 99.7 µM
[47]
  TGI: > 100 µM
[48]
  TGI: > 100 µM
[49]
  TGI: 66.1 µM
[50]
  TGI: 90.2 µM
[51]
  TGI: > 100 µM
[52]
  TGI: > 100 µM
[53]
  TGI: 47.7 µM
[54]
  TGI: 51.2 µM
[55]
  TGI: 52.7 µM
[56]
  TGI: 56.7 µM
[57]
  TGI: 40.3 µM

## N#CC(C#N)=c1[nH]c2cccc3c2-c2c(cccc2c3=C(C#N)C#N)[nH]1
[1]
  TGI: > 100 µM
[2]
  TGI: > 100 µM
[3]
  TGI: > 100 µM
[4]
  TGI: > 100 µM
[5]
  TGI: > 100 µM
[6]
  TGI: > 100 µM
[7]
  TGI: > 100 µM
[8]
  TGI: > 100 µM
[9]
  TGI: > 100 µM
[10]
  TGI: > 100 µM
[11]
  TGI: > 100 µM
[12]
  TGI: > 100 µM
[13]
  TGI: > 100 µM
[15]
  TGI: > 100 µM
[16]
  TGI: > 100 µM
[17]
  TGI: > 100 µM
[18]
  TGI: > 100 µM
[19]
  TGI: > 100 µM
[21]
  TGI: > 100 µM
[22]
  TGI: > 100 µM
[23]
  TGI: > 100 µM
[24]
  TGI: > 100 µM
[25]
  TGI: > 100 µM
[26]
  TGI: > 100 µM
[27]
  TGI: > 100 µM
[28]
  TGI: > 100 µM
[29]
  TGI: > 100 µM
[31]
  TGI: > 100 µM
[59]
  TGI: > 100 µM
[32]
  TGI: > 100 µM
[33]
  TGI: > 100 µM
[34]
  TGI: > 100 µM
[35]
  TGI: > 100 µM
[36]
  TGI: > 100 µM
[37]
  TGI: > 100 µM
[38]
  TGI: > 100 µM
[40]
  TGI: > 100 µM
[41]
  TGI: > 100 µM
[42]
  TGI: > 100 µM
[43]
  TGI: > 100 µM
[44]
  TGI: > 100 µM
[45]
  TGI: > 100 µM
[46]
  TGI: > 100 µM
[47]
  TGI: > 100 µM
[48]
  TGI: > 100 µM
[49]
  TGI: > 100 µM
[50]
  TGI: > 100 µM
[51]
  TGI: > 100 µM
[52]
  TGI: > 100 µM
[53]
  TGI: > 100 µM
[54]
  TGI: > 100 µM
[55]
  TGI: > 100 µM
[56]
  TGI: > 100 µM
[57]
  TGI: > 100 µM

From PubChem BioAssay (NCI)
